The subject of experiment [1] is Chlorella vulgaris (CCAP 211/12). The experiment can be described thus: Poison plate assay in 96 multi-well plates, algae growth. Type of experiment: cell-based. The conditions noted are these: single active ingredient, incubation time 18 days. As to the method: (§1) Activity against algae growth was determined with the poison plate assay. A calculated amount of a stock solution (containing either 4-bromo-2-(4-chlorophenyl)-5-(trifluoromethyl)-1H-pyrrole-3-carbonitrile, bethoxazin, DCOIT, dichlofluanide, or tolylfluanide in DMSO) was pipetted into multiwell plates in order to reach a final test concentration ranging from 0.05 to 100 ppm and mixed with a warm culture medium. The medium was inoculated with 300 μl of an algal suspension. The multi-well plates were kept at 21° C., a relative humidity of 65% and light-dark cycle of 16 hours a day (1000 Lux photoperiod).
(§2) The lowest concentration of each test compound or mixture of test compounds sufficient to inhibit visible growth was taken as the minimum inhibitory concentration (MIC). The MIC were taken as end points of activity. End points for the combinations of component (I) with one of the components (II) were then compared with the end points for the pure active test compound when employed individually.
(§3) Synergism between component (I) and one of the components (II) was determined by a commonly used and accepted method described by Kull F. C. et al. in Applied Microbiology, 9, 538-541 (1961) using the Synergy Index, which is calculated as follows for two compounds A and B:
(§4) [formula] wherein: • QA is the concentration of compound A in ppm, acting alone, which produced an end point (e.g. MIC), • Qa is the concentration of compound A in ppm, in the mixture, which produced an end point (e.g. MIC), • QB is the concentration of compound B in ppm, acting alone, which produced an end point (e.g. MIC), • Qb is the concentration of compound B in ppm, in the mixture, which produced an end point (e.g. MIC).
(§5) When the Synergy Index is greater than 1.0, antagonism is indicated. When the SI is equal to 1.0, additivity is indicated.

Experiment [2] concerns Stichococcus bacillaris (CCAP 379/1A). Described as above. Type of experiment: cell-based. The settings on record: single active ingredient, incubation time 18 days. As to the method:
as §1, §2, §3, §4, §5

Marks after values point to notes of the source that are not given here. Where only a bound is given, the exact number is not on record here.

For the compound `CN(C)S(=O)(=O)N(SC(F)(Cl)Cl)c1ccccc1` [component (II-c), 1,1-dichloro-N-[(dimethylamino)sulfonyl]-1-fluoro-N-phenyl-methanesulfenamide], the “MIC-values (minimum inhibitory concentration)” value in experiment [1] and in experiment [2] was 25 ppm in each case.

For the compound `N#Cc1c(-c2ccc(Cl)cc2)[nH]c(C(F)(F)F)c1Br` [component (I), 4-bromo-2-(4-chlorophenyl)-5-(trifluoromethyl)-1H-pyrrole-3-carbonitrile], the “MIC-values (minimum inhibitory concentration)” value in experiment [1] and in experiment [2] was > 100* ppm each time.

Turning to `CCCCCCCCn1sc(Cl)c(Cl)c1=O` [component (II-d), 4,5-dichloro-2-(n-octyl)-3(2H)-isothiazolone], the “MIC-values (minimum inhibitory concentration)” value in experiment [1] and in experiment [2] was 1.6 ppm each time.

Regarding `Cc1ccc(N(SC(F)(Cl)Cl)S(=O)(=O)N(C)C)cc1` [component (II-b), 1,1-dichloro-N-[(dimethylamino)sulfonyl]-1-fluoro-N-(4-methylphenyl)-methanesulfenamide], the entries for the “MIC-values (minimum inhibitory concentration)” value in experiment [1] and in experiment [2] were 25 ppm and 12.5 ppm, respectively.

Regarding `[O-][S+]1CCON=C1c1cc2ccccc2s1` (stereo not shown) [component (II-a), 3-(benzo[b]thien-2-yl)-5,6-dihydro-1,4,2-oxathiazine 4-oxide], the “MIC-values (minimum inhibitory concentration)” value is 1.6 ppm in experiment [1] and 6.2 ppm in experiment [2].

Source of the values: patent publication US8841339B2, “Synergistic antifouling compositions comprising 4-bromo-2-(4-chlorophenyl)-5-(trifluoromethyl)-1H-pyrrole-3-carbonitrile” (Janssen Pharmaceutica N.V., priority 2001, dated 2014).
